The values below come from US20230109134A1, “PYRIDAZINONE OR PYRIDAZINE COMPOUND AND DERIVATIVE AND PHARMACEUTICAL COMPOSITION THEREOF” (Suzhou Zelgen Biopharmaceuticals Co., Ltd., priority 2019, published 2023).

Data set [1] is described as follows: Pharmacokinetic testing evaluation, Test Example 4 (rat plasma). In kind it is in vivo, SD rats. As to conditions: for plasma exposure AUC relative to compound MGL-3196: rats, 10 mg/kg intragastric, Table 5. Here is the method:
Male SD rats, weighing about 220 g, were divided into 3 groups after fasting overnight, with 4 rats in each group. The first group was intragastrically administered 10 mg/kg solution of compound MGL-3196 prepared in Example 1, the second group was intragastrically administered 10 mg/kg solution of compound 2A prepared in Example 2 (The dosage is calculated by the relative content of compound MGL-3196 prepared in Example 1), and the third group was intragastrically administered 10 mg/kg solution of compound 2B prepared in Example 2 (The dosage is calculated by the relative content of compound MGL-3196 prepared in Example 1), wherein the vehicle of the solution of compound MGL-3196, compound 2A, and compound 2B is DMSO/PEG400. Blood was collected from each group at 0.5, 1.0, 2.0, 4.0, 6.0, 8.0, 12 and 24 hours after administration, and the concentration of active ingredient MGL-3196 in plasma was determined by LC/MS/MS.

Data set [2] is described as follows: Pharmacokinetic testing evaluation, Test Example 2 (rat plasma). In kind it is in vivo. As to conditions: male SD rats, intragastric 10 mg/kg (calculated based on MGL-3196), DMSO/PEG400; MGL-3196 measured in plasma; n = 4, mean. The protocol:
Male SD rats, weighing about 220 g, were divided into 2 groups after fasting overnight, with 4 rats in each group. The first group was intragastrically administered 10 mg/kg solution of compound MGL-3196 prepared in Example 1, and the second group was intragastrically administered 10 mg/kg solution of compound 6A prepared in Example 6 (The dosage is calculated by the relative content of compound MGL-3196 prepared in Example 1), wherein the vehicle of the solution of MGL-3196 compound and compound 6A prepared in Example 6 is DMSO/PEG400. Blood was collected from each group at 0.5, 1.0, 2.0, 4.0, 6.0, 8.0, 12 and 24 hours after administration, and the concentration of active ingredient MGL-3196 in plasma was determined by LC/MS/MS.

The nature of data set [3]: Pharmacokinetic testing evaluation, Test Example 1 (rat plasma). The following applies: male SD rats, intragastric 10 mg/kg (calculated based on MGL-3196), DMSO/PEG400; plasma concentration of MGL-3196; n = 4, mean. In kind it is in vivo. Here is the method: Male SD rats, weighing about 220 g, were divided into 2 groups after fasting overnight, with 4 rats in each group. The first group was intragastrically administered 10 mg/kg solution of compound MGL-3196 prepared in Example 1, and the second group was intragastrically administered 10 mg/kg solution of compound of Example 5 of WO2009037172A1 (The dosage is calculated by the relative content of compound MGL-3196 prepared in Example 1), wherein the vehicle of the solution of compound MGL-3196 and compound of Example 5 of WO2009037172A1 is DMSO/PEG400. Blood was collected from each group at 0.5, 1.0, 2.0, 4.0, 6.0, 8.0, 12 and 24 hours after administration, and the concentration of active ingredient MGL-3196 in plasma was determined by LC/MS/MS.

A short description of data set [4]: Pharmacokinetic testing evaluation, Test Example 3 (rat plasma). In kind it is in vivo, SD rats. Here is the method:
Male SD rats, weighing about 220 g, were divided into 3 groups after fasting overnight, with 4 rats in each group. The first group was intragastrically administered 10 mg/kg solution of compound MGL-3196 prepared in Example 1, and the second group was intragastrically administered 10 mg/kg solution of compound 6B prepared in Example 6 (The dosage is calculated by the relative content of compound MGL-3196 prepared in Example 1), wherein the vehicle of the solution of compound MGL-3196 and compound 6B prepared in Example 6 is DMSO/PEG400. Blood was collected from each group at 0.5, 1.0, 2.0, 4.0, 6.0, 8.0, 12 and 24 hours after administration, and the concentration of active ingredient MGL-3196 in plasma was determined by LC/MS/MS.

Data set [5] can be described thus: Drug concentrations in liver tissue, Test Example 5. Type of data set: in vivo, ICR mice. As to conditions: mouse liver at 1 hr and 6 hr, 10 mg/kg intragastric. The protocol: ICR mice, weighing 20-30 g, were divided into 4 groups after fasting overnight, with 8 mice in each group. The first group was intragastrically administered 10 mg/kg solution of compound MGL-3196 prepared in Example 1, the second group was intragastrically administered 10 mg/kg solution of compound 2A prepared in Example 2 (The dosage is calculated by the relative content of compound MGL-3196 prepared in Example 1), the third group was intragastrically administered 10 mg/kg solution of compound 2B prepared in Example 2 (The dosage is calculated by the relative content of compound MGL-3196 prepared in Example 1) and the fourth group was intragastrically administered 10 mg/kg solution of compound 6B prepared in Example 6 (The dosage is calculated by the relative content of compound MGL-3196 prepared in Example 1), wherein the vehicle of the solution of compound MGL-3196, compound 2A, compound 2B and compound 6B is DMSO/PEG400. The livers of mice in each group were collected at 1 hr and 6 hr after administration, respectively, and the concentration of the active ingredient MGL-3196 in the liver was determined by LC/MS/MS.

Data set [6] deals with Diet-Induced Obesity (DIO) C57Bl/6J mouse. The data set can be described thus: Diet-induced obesity (DIO) C57Bl/6J mouse model. The following applies: DIO C57Bl/6J mice, 1, 3 or 10 mg/kg intragastric, 23 consecutive days. In kind it is in vivo. Here is the method:
6-week-old C57Bl/6J mice were given a high-fat diet for 34 weeks. Mice were intragastrically administered vehicle (2% Klucel LF, 0.1% Tween 80 in water); 1, 3 or 10 mg/kg of compound 2A, compound 2B prepared in Example 2 or compound MGL-3196 prepared in Example 1 starting from day 0 (1st day of 35 weeks) respectively, 9 mice in each group, for 23 consecutive days. In a parallel study, mice were intragastrically administered vehicle (Dulbecco's phosphate buffered saline, pH adjusted to 9.0 with 1N NaOH) or 10, 30 or 100 μg/kg triiodothyronine (T3) starting from day 0 (day 1 of week 35) respectively, 9 mice in each group, for 23 consecutive days. Body weight and food intake were monitored during the study. BMD and body composition analyses were performed on day 22. At necropsy on day 23, organ weighing was performed and cholesterol and other blood biochemical parameters of blood samples were evaluated.

Setting [7] is: male SD rats, intragastric 10 mg/kg (calculated based on MGL-3196), DMSO/PEG400, MGL-3196 measured in plasma, n = 4, mean.

As usually defined, the Tmax is the time from dosing to the highest level.

Molecules are shown by their SMILES.

For `CC(C)c1cc(Oc2c(Cl)cc(-n3nc(C#N)c(=O)[nH]c3=O)cc2Cl)n[nH]c1=O` [MGL-3196, 2-(3,5-dichloro-4-((5-isopropyl-6-oxo-1,6-dihydropyridazin-3-yl)oxy)phenyl)-3,5-dioxo-2,3,4,5-tetrahydro-1,2,4-triazin-6-carbonitrile], the T1/2 is 3.73 h in data set [1] (setting [7]), 3.54 h in data set [2], 3.35 h in data set [3] and 3.55 h in data set [4] (setting [7]). The time to peak (Tmax) was 4.5 h in data set [1] (setting [7]), 5.00 h in data set [2], 2.75 h in data set [3] and 6.0 h in data set [4] (setting [7]).

As for `CC(C)OC(=O)OCOc1nnc(Oc2c(Cl)cc(-n3nc(C#N)c(=O)[nH]c3=O)cc2Cl)cc1C(C)C` [Compound 6B, ((6-(2,6-dichloro-4-(6-cyano-3,5-dioxo-4,5-dihydro-1,2,4-triazin-2(3H)-yl)phenoxy)-4-isopropylpyridazin-3-yl)oxy)methyl Isopropyl Carbonate], the “drug concentration in mouse liver compared to MGL-3196” value in data set [5] is on record as “higher drug concentrations”. The “plasma exposure AUC relative to compound MGL-3196” value in data set [4] (rats, 10 mg/kg intragastric, Table 4) is given as 2.0 times. The “efficacy in lowering cholesterol and liver fat” value in data set [6] was “excellent efficacy in lowering cholesterol and liver fat”.

Turning to `CC(C)OC(=O)OC(C)n1nc(Oc2c(Cl)cc(-n3nc(C#N)c(=O)[nH]c3=O)cc2Cl)cc(C(C)C)c1=O` (centres unmarked) [Compound 2A, 1-(3-(2,6-dichloro-4-(6-cyano-3,5-dioxo-4,5-dihydro-1,2,4-triazin-2(3H)-yl)phenoxy)-5-isopropyl-6-oxopyridazin-1(6H)-yl)ethyl Isopropyl Carbonate], the “plasma exposure AUC relative to compound MGL-3196” value in data set [1] came to 2.4 times. The “drug concentration in mouse liver compared to MGL-3196” value in data set [5] was “higher drug concentrations”. Moreover, the “efficacy in lowering cholesterol and liver fat” value in data set [6] was “excellent efficacy in lowering cholesterol and liver fat”.

As for `CC(C)OC(=O)OC(C)Oc1nnc(Oc2c(Cl)cc(-n3nc(C#N)c(=O)[nH]c3=O)cc2Cl)cc1C(C)C` (centres unmarked) [Compound 2B, 1-((6-(2,6-dichloro-4-(6-cyano-3,5-dioxo-4,5-dihydro-1,2,4-triazin-2(3H)-yl)phenoxy)-4-isopropylpyridazin-3-yl)oxy)ethyl Isopropyl Carbonate], the “plasma exposure AUC relative to compound MGL-3196” value in data set [1] came out at 1.87 times. In addition, the “drug concentration in mouse liver compared to MGL-3196” value in data set [5] was “higher drug concentrations”. Moreover, the “efficacy in lowering cholesterol and liver fat” value in data set [6] was “excellent efficacy in lowering cholesterol and liver fat”.
